Results as given in patent publication US9399625B2, “Acridone compounds” (Oregon Health & Science University, priority 2006, dated 2016).
“Also recorded” adds a separate entry of the source. Where two headings read alike, the source gives them in different places.

Legend:
[1] = Heme-binding affinity (spectrophotometric titration); details: Table 4
Text: With continued reference to FIG. 1, panel B illustrates the spectrophotometric titration curve of the heme:3,6-bis-ε-(N,N-diethylamino)-amyloxy xanthone (C5) complex. The apparent binding constant was derived from the best fit (solid line) of a 1:1 (heme dimer:C5) association model. […] Panels A and B show the fluorescence localization of C5 and LysoTracker Red, respectively.

MDR P. falciparum Dd2 = experiment: Fixed-ratio combination (isobologram) with quinoline antimalarials, Dd2; assay type: cell-based
Description: (§1) In one embodiment, synergism is assessed herein using fixed-ratio combinations that provide information over a wide range of drug concentrations. […] If these stock solutions were termed Drug A and Drug B, then six final stock solutions were prepared from this initial stock: Drug A alone, Drug B alone, and volume:volume mixtures of Drug A and B in the following ratios: 4:1, 3:2, 2:3, and 1:4. Two-fold dilutions of each of the six final stock solutions were done robotically across a 96-well plate in quadruplicate. Subsequent steps were typical of standard drug-susceptibility methods. […] The data pointed from all six curves were then analyzed using Calcusyn software (commercially available from BioSoft, Cambridge, UK) for determination of synergy. Output from this analysis included FIC values used to plot isobolograms as well as a rigorously determined synergy index, termed the combination index (CI) (Calcusyn). FIC50 isobolograms, CI's and tabulation of IC90 component drug concentrations were reported.
The combinations of the acridones T3.5 and T2 with quinine were assessed for synergism.
FIG. 6 is an isobologram charting the efficacy of quinine in combination with T3.5 in vitro against CQ-sensitive (D6) and MDR (Dd2) P. falciparum.

[2] = target: T1, recombinant human serotonin transporter (hSERT) (Homo sapiens, UniProt P31645); experiment: [125I]RTI-55 binding, HEK-hSERT
T1 construct: expressed in transfected cells

[3] = test system: CQ-sensitive D6 strain of P. falciparum; experiment: In vitro antimalarial activity, SYBR Green MSF assay, D6; assay type: cell-based; details: Plasmodium falciparum, D6
Text: (§2) This example describes the screening of disclosed antimalarial acridones against the CQ-sensitive D6 strain and the MDR Dd2 strain of P. falciparum for in vitro antimalarial activity.

[4] = target: T2, recombinant human norepinephrine transporter (hNET) (Homo sapiens, UniProt P23975); experiment: [125I]RTI-55 binding, HEK-hNET
T2 construct: expressed in transfected cells

[5] = test system: CQ-sensitive P. falciparum D6; experiment: Fixed-ratio combination (isobologram) with quinine, D6; assay type: cell-based; details: isobolar analysis
Description: as §1, with “concentrations. In this method, the two drugs are mixed in an appropriate ratio, serial dilutions of the combined solution are used for testing, and results compared to each drug alone. Specifically, to determine synergy, the acridone is tested in combination with a second drug using a modification of the fixed-ratio method described by Fivelman et al. (See, Fivelman et al., Antimicrob. Agents Chemother. 48, 4097-4102 (2004) and Winter et al., Antimicrob. Agents Chemother. 41, 1449-1454 (1997), both references incorporated herein, in their entirety, by reference).” for “concentrations.”, “quadruplicate.” for “quadruplicate. Subsequent steps were typical of standard drug-susceptibility methods.”, “FIC50 isobolograms, CI's and tabulation of IC90 component drug concentrations were reported.” left out

P. falciparum Dd2 MDR = experiment: Morphology of synchronized Dd2 parasitized red cells; assay type: cell-based; details: 300 nM; 36 hours of incubation; vs controls
Description: (§3) P. falciparum Dd2 MDR parasited red cells were synchronized to the ring stage by sorbitol lysis and incubated the cells in the presence or absence of 300 nM T3.5. […] P. yoelii infected mice treated with T3.5 harbor PRBCs that lack hemozoin. Taken together these observations are consistent with the notion that T3.5 blocks hemozoin formation in infected cells.

[6] = test system: murine splenic lymphocytes (MSLCs); experiment: Cytotoxicity by Alamar Blue assay; details: for IC50: cytotoxicity
[7] = target: T3, recombinant human dopamine transporter (hDAT) (Homo sapiens, UniProt Q01959); experiment: [125I]RTI-55 binding, HEK-hDAT
T3 construct: expressed in transfected cells

P. yoelii (K) = experiment: Curative efficacy vs patent infection, three once-daily doses (adapted 6-day Thompson test); details: ig, three once-daily doses
[8] = In vitro heme aggregation assay; details: 25 mM phosphate buffer, pH 4.8, 30 minutes at room temperature
Description: This example describes the in vitro inhibition of heme aggregation by xanthone 2,3,4,5,6-pentahydroxyxanthone. Conditions: 25 mM Phosphate buffer, pH 5.2, 1 hour incubation at 37° C. Further details of this assay are described by Ignatushchenko et al. in Xanthones as antimalarial agents; studies of a possible mode of action.
This example describes visual evidence that acridones disclosed herein form soluble complexes with heme under mildly acidic conditions. […] Employing the same assay conditions, heme was mixed with T2 or T3.5 under mildly acidic conditions (25 mM phosphate buffer, pH 4.8) and monitored. […] Without being limited to theory, it is believed that for some compounds inhibition of heme aggregation in vitro can be correlated with inhibition of hemozoin formation in vivo.

[9] = test system: MDR Dd2 strain of P. falciparum; experiment: In vitro antimalarial activity, SYBR Green MSF assay, Dd2; assay type: cell-based; details: Plasmodium falciparum, DD2
Text: as §2
As shown in Table 3 and Table 4, selected soluble acridone derivatives were screened for antimalarial activity against the CQ-sensitive D6 and the MDR Dd2 strains of P. falciparum.

P. yoelii = experiment: Hemozoin in PRBCs of treated infected mice; assay type: in vivo
Description: as §3

T1 sequence (P31645 whole entry): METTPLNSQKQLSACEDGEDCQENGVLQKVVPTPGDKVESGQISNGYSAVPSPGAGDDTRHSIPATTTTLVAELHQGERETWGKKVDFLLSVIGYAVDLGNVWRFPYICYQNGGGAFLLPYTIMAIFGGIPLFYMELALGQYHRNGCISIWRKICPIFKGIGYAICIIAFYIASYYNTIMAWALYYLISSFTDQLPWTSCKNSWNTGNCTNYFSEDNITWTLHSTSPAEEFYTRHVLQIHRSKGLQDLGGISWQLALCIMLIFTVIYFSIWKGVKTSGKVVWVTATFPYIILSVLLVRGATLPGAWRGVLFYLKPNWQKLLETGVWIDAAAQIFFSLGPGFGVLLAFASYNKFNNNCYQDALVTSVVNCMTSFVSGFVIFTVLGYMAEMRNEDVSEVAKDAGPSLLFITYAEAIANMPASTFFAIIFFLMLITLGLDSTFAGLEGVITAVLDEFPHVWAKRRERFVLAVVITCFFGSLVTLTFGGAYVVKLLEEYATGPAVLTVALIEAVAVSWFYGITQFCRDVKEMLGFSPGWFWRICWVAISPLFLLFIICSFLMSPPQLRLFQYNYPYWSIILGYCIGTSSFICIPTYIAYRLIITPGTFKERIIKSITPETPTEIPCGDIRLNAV
T2 sequence (P23975 whole entry): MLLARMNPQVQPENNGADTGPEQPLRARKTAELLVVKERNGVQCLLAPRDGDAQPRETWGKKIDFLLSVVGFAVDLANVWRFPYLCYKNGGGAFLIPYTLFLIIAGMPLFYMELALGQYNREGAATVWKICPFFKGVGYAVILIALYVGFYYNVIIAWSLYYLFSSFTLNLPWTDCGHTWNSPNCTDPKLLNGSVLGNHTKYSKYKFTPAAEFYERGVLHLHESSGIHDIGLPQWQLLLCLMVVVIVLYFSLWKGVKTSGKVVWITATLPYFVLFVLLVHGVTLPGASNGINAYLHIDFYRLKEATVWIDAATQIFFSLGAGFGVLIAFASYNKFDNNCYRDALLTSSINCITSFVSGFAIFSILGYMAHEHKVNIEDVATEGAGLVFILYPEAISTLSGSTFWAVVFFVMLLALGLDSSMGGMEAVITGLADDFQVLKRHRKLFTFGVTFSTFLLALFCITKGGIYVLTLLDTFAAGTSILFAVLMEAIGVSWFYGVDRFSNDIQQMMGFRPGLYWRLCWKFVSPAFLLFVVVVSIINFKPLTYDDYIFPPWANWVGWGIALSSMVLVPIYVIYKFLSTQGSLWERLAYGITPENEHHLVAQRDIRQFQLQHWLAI
T3 sequence (Q01959 whole entry): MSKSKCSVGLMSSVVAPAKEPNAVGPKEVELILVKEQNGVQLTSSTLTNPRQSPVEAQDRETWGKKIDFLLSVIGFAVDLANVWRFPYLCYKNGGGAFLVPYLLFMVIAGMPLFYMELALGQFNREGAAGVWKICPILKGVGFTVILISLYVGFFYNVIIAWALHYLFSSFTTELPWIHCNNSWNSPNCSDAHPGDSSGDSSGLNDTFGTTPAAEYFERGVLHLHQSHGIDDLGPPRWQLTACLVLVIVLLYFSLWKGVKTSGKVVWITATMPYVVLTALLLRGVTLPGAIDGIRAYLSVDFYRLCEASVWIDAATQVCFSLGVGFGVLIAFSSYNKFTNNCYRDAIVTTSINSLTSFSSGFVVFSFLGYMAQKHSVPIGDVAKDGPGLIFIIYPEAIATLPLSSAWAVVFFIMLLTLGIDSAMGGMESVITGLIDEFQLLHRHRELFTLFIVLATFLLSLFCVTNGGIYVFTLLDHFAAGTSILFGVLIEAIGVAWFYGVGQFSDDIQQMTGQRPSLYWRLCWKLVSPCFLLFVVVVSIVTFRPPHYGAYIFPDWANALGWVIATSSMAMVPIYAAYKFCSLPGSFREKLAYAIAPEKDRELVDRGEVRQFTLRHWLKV

Heme-binding Ka [1]: 7.1 10^4 M^−1
Ki [2]: 2290 nM
IC50 ([3]; Table 2, average of 4 independent experiments, read-out: IC50, D6): 50 nM
IC50 ([3]; Table 4, read-out: IC50 P. falciparum D6): 44 nM
Ki [4]: > 10000 nM
Ki [7]: > 10000 nM
IC50 ([9]; Table 2, average of 4 independent experiments, read-out: IC50, Dd2): 58 nM
IC50 ([9]; Table 4, read-out: IC50 P. falciparum Dd2): 77 nM
Compound: CCN(CC)CCOc1ccc2c(=O)c3ccc(Cl)cc3n(CCN(CC)CC)c2c1 [T3.5, 3-(2-diethylaminoethoxy)-6-chloro-10-(2-diethylaminoethyl)-9-acridone]
interaction with CQ (MDR P. falciparum Dd2; isobolar analysis): synergistic
interaction with amodiaquine (MDR P. falciparum Dd2; isobolar analysis): synergistic
interaction with mefloquine (MDR P. falciparum Dd2; isobolar analysis): not
interaction with quinine (MDR P. falciparum Dd2; isobolar analysis): synergism; also recorded: synergistic
T3.5 concentration giving 90% growth inhibition in combination (MDR P. falciparum Dd2; with 7-70 nM quinine): 20 to 200 nM
interaction with quinine [5]: synergism
visible hemozoin (P. falciparum Dd2 MDR): markedly diminished
cytotoxicity at the highest tested concentration ([6]; 25 μM): no evidence of cytotoxicity
IVTI ([6]; ratio of cytotoxicity IC50 (vs. MSLCs) to antimalarial IC50 against D6): >500
IC50 ([6]; read-out: IC50, MSLCs, Table 2): > 25000 nM
IC50 ([6]; read-out: IC50 MSLCs, Table 4): > 25000 nM
ED50 and ED90, gavage (ig) dosing, in words (P. yoelii (K)): comparable
formation of heme aggregates [8]: prevent the formation of heme aggregates
hemozoin in PRBCs (P. yoelii): lack hemozoin
